From patent publication US20120316065A1, “SURFACTANT BLENDS FOR AUXIN ACTIVITY HERBICIDES” (AKZO NOBEL CHEMICALS INTERNATIONAL B.V., priority 2010, published 2012)

Tested on: alfalfa (Medicago sativa)
Assay: Greenhouse herbicidal efficacy of 2,4-D amine tank-mixed with adjuvants, post-emergence spray
Assay type: in vivo
Details: 2,4-D DMA 0.125 lb/A, adjuvant 0.25% wt (0 for None), scale 0% no damage to 100% complete damage
Description: The surfactant blends described in Table 1 were applied by the tank mix method together with 2,4-D amine salt (465 g/l). The application rate per ha was 0.1250 lb 2,4-D amine salt ai/A and 0.25% of surfactant blends according to the invention or 0.25% comparative adjuvant Activator 90 (alkylphenol ethoxylate, alcohol ethoxylate and tall oil fatty acid, (Loveland). The herbicidal effect was assessed in a greenhouse environment after 1, 2, 3, and 4 weeks. The test plant used was alfalfa (Medicago sativa).
The plants were sown directly to the pot. When the active ingredient was applied, the plants were 20-30 cm in height. The test containers used were plastic pots containing potting mixture. The solutions were applied by the tank mix method by spray application post-emergence in an automated spray cabinet with a water application rate of 200 liters per hectare. Evaluation was carried out using a scale of from 0% to 100%. 0% means no damage, 100% means complete damage. The results of the assessment are compiled in tables 2 and which follow.

With `O=C(O)COc1ccc(Cl)cc1Cl` [2,4-D DMA, 2-(2,4-dichlorophenoxy) acetic acid] the “Alfalfa (1WAT) % control” value (1 week after treatment) was 10.0%, the “Alfalfa (2WAT) % control” value (2 weeks after treatment) was 20.0% and the “Alfalfa (3WAT) % control” value (3 weeks after treatment) was 20.0%. The “Alfalfa (4WAT) % control” value (4 weeks after treatment) was 37.5%.
